Experimental data as given in patent publication US4169197A, “6-Deoxyneamines aminoglycoside compounds” (The Upjohn Company, priority 1978, dated 1979).
Converted amounts (≈) assume the structure as drawn. Like-named read-outs stand apart in the source and are kept apart here.

Key:
Format in all cases: cell-based
P. mirabilis UC 6671 = experiment: standard microplate test in BHI Agar; conditions: Proteus mirabilis, UC6671, 20 h
How it was run: (§1)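 End points are read after 20 hours of incubation at 37°. The medium is Brain Heart Infusion agar in a standard microplate format. Compounds are tested at 1 mg./ml. and at dilutions of that level.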

P. rettgeri UC 339 = experiment: standard microplate test in BHI Agar; conditions: Providencia rettgeri, UC339, 20 h
How it was run: (§2)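 Compounds were tested in BHI agar by a standard microplate method at 1 mg./ml. and dilutions thereof. Plates were incubated at 37°, and end points were read at 20 hours.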

S. faecalis UC 694 = experiment: standard microplate test in BHI Agar; conditions: Enterococcus faecalis, UC694, 20 h
How it was run: as §2

K. pneumoniae UC 58 = experiment: standard microplate test in BHI Agar; conditions: Klebsiella pneumoniae, UC58, 20 h
How it was run: as §2

S. pneumoniae I UC 41 = experiment: standard microplate test in BHI Agar; conditions: Streptococcus pneumoniae, UC41, 20 h
How it was run: as §1

P. morganii UC 3186 = experiment: standard microplate test in BHI Agar; conditions: Morganella morganii, UC3186, 20 h
How it was run: as §2

S. schottmuelleri UC 126 [1] = experiment: standard microplate test in BHI Agar; conditions: 37°, 20 hours
How it was run: as §2

S. flexneri UC 143 = experiment: standard microplate test in BHI Agar; conditions: Shigella flexneri, UC143, 37°, 20 hours
How it was run: as §2

Ps. aeruginosa UC 95 [2] = experiment: standard microplate test in BHI Agar; conditions: Pseudomonas aeruginosa, UC95, 20 h
How it was run: as §2

S. typhi UC 215 = experiment: standard microplate test in BHI Agar; conditions: Salmonella enterica, BHI Agar, 37°, 20 hours
How it was run: as §1

E. coli UC 311 = experiment: standard microplate test in BHI Agar; conditions: Escherichia coli, UC311, 20 h, read-out: Minimal Inhibitory Concentration
How it was run: as §2

P. vulgaris UC 93 [3] = experiment: standard microplate test in BHI Agar; conditions: Proteus vulgaris, UC93, 20 h
How it was run: as §2

S. pyogenes UC 152 = experiment: standard microplate test in BHI Agar; conditions: Streptococcus pyogenes, UC152, 20 h
How it was run: as §2

E. coli UC 45 = experiment: standard microplate test in BHI Agar; conditions: Escherichia coli, UC45, 37°, 20 hours, Table III, read-out: Minimum Inhibitory Concentration
How it was run: as §2

S. aureus UC 76 = experiment: standard microplate test in BHI Agar; conditions: Staphylococcus aureus, UC76, 20 h
How it was run: as §2

S. marcescens UC 131 = experiment: standard microplate test in BHI Agar; conditions: Serratia marcescens, UC131, 20 h
How it was run: as §2

S. gallinarum UC 265 = experiment: standard disc plate assay, zones of inhibition; conditions: for Zones of Inhibition: 12.5 mm paper discs, Table II
How it was run: (§3)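 Antibacterial activity was determined in vitro by a standard disc plate assay with 12.5 mm paper discs, scored as zone of inhibition.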

B. cereus UC 3145 = experiment: standard disc plate assay, zones of inhibition; conditions: Bacillus cereus, 12.5 mm paper discs; for zone of inhibition at 100 µg/mL: UC3145, read-out: Zones of Inhibition, 0.1 mg/ml; for zone of inhibition at 1000 µg/mL: UC3145, read-out: Zones of Inhibition, 1 mg/ml
How it was run: as §3

S. schottmuelleri UC 126 [4] = experiment: standard disc plate assay, zones of inhibition; conditions: 12.5 mm paper discs; for zone of inhibition at 100 µg/mL: 0.1 mg/ml; for zone of inhibition at 1000 µg/mL: 1 mg/ml
How it was run: as §3

B. subtilis UC 564 = experiment: standard disc plate assay, zones of inhibition; conditions: Bacillus subtilis, 12.5 mm paper discs; for zone of inhibition at 100 µg/mL: UC564, read-out: Zones of Inhibition, 0.1 mg/ml; for zone of inhibition at 1000 µg/mL: UC564, read-out: Zones of Inhibition, 1 mg/ml
How it was run: as §3

Ps. aeruginosa UC 95 [5] = experiment: standard disc plate assay, zones of inhibition; conditions: Pseudomonas aeruginosa, UC95, read-out: Zones of Inhibition, 1 mg/ml, 12.5 mm paper discs
How it was run: as §3

K. pneumoniae UC 57 = experiment: standard disc plate assay, zones of inhibition; conditions: Klebsiella pneumoniae, 12.5 mm paper discs; for zone of inhibition at 100 µg/mL: UC57, read-out: Zones of Inhibition, 0.1 mg/ml; for zone of inhibition at 1000 µg/mL: UC57, read-out: Zones of Inhibition, 1 mg/ml
How it was run: as §3

S. lutea UC 130 = experiment: standard disc plate assay, zones of inhibition
How it was run: as §3

P. vulgaris UC 93 [6] = experiment: standard disc plate assay, zones of inhibition; conditions: Proteus vulgaris, 12.5 mm paper discs; for zone of inhibition at 100 µg/mL: UC93, read-out: Zones of Inhibition, 0.1 mg/ml; for zone of inhibition at 1000 µg/mL: UC93, read-out: Zones of Inhibition, 1 mg/ml
How it was run: as §3

[7] = read-out: Minimal Inhibitory Concentration
[8] = read-out: Minimum Inhibitory Concentration
[9] = Table III, read-out: Minimum Inhibitory Concentration
[10] = Table IV, read-out: Minimal Inhibitory Concentration
[11] = Salmonella enterica, read-out: Zones of Inhibition

NC[C@H]1O[C@H](O[C@H]2[C@H](O)[C@@H](O)[C@H](N)C[C@@H]2N)[C@H](N)[C@@H](O)[C@@H]1O [Neamine] gave an MIC (P. mirabilis UC 6671; [7]) of 250 µg/mL (≈ 776 µM), an MIC (P. mirabilis UC 6671; [8]) of 62.5 µg/mL (≈ 194 µM) and an MIC (P. rettgeri UC 339; [7]) of over 500 µg/mL. For the same molecule, the MIC (P. rettgeri UC 339; [8]) was 250 µg/mL (≈ 776 µM), the MIC (S. faecalis UC 694; [7]) was over 500 µg/mL and the MIC (S. faecalis UC 694; [8]) was over 500 µg/mL. For the same molecule, the MIC (K. pneumoniae UC 58; [7]) was 7.8 µg/mL (≈ 24.2 µM), the MIC (K. pneumoniae UC 58; [8]) was 15.6 µg/mL (≈ 48.4 µM) and the MIC (S. pneumoniae I UC 41; [7]) was 62.5 µg/mL (≈ 194 µM). The MIC (S. pneumoniae I UC 41; [8]) was 62.5 µg/mL (≈ 194 µM), the MIC (P. morganii UC 3186; [7]) was 31.2 µg/mL (≈ 96.8 µM) and the MIC (P. morganii UC 3186; [8]) was 62.5 µg/mL (≈ 194 µM). For the same molecule, the MIC (S. schottmuelleri UC 126 [1]; [9]) was 31.2 µg/mL (≈ 96.8 µM), the MIC (S. schottmuelleri UC 126 [1]; [10]) was 15.6 µg/mL (≈ 48.4 µM) and the MIC (S. flexneri UC 143; [9]) was 62.5 µg/mL (≈ 194 µM). The MIC (S. flexneri UC 143; [10]) was 125 µg/mL (≈ 388 µM), the MIC (Ps. aeruginosa UC 95 [2]; [7]) was over 500 µg/mL and the MIC (Ps. aeruginosa UC 95 [2]; [8]) was over 500 µg/mL. It also gave an MIC (S. typhi UC 215; [9]) of 15.6 µg/mL (≈ 48.4 µM), an MIC (S. typhi UC 215; [10]) of 31.2 µg/mL (≈ 96.8 µM) and an MIC (E. coli UC 311) of 125 µg/mL (≈ 388 µM). The MIC (P. vulgaris UC 93 [3]; [7]) was 62.5 µg/mL (≈ 194 µM), the MIC (P. vulgaris UC 93 [3]; [8]) was 62.5 µg/mL (≈ 194 µM) and the MIC (S. pyogenes UC 152; [7]) was 7.8 µg/mL (≈ 24.2 µM). It also gave an MIC (S. pyogenes UC 152; [8]) of 7.8 µg/mL (≈ 24.2 µM), an MIC (E. coli UC 45) of 62.5 µg/mL (≈ 194 µM) and an MIC (S. aureus UC 76; [7]) of 7.8 µg/mL (≈ 24.2 µM). The MIC (S. aureus UC 76; [8]) was 3.9 µg/mL (≈ 12.1 µM), the MIC (S. marcescens UC 131; [7]) was 250 µg/mL (≈ 776 µM) and the MIC (S. marcescens UC 131; [8]) was 250 µg/mL (≈ 776 µM). For the same molecule, the “Zones of Inhibition” value (S. gallinarum UC 265; 0.1 mg/ml) was 19 mm, the “Zones of Inhibition” value (S. gallinarum UC 265; 1 mg/ml) was 29 mm and the zone of inhibition at 100 µg/mL (S. gallinarum UC 265; [11]) was 19 mm. For the same molecule, the zone of inhibition at 1000 µg/mL (S. gallinarum UC 265; [11]) was 29 mm, the zone of inhibition at 100 µg/mL (B. cereus UC 3145; Table I) was 15 mm and the zone of inhibition at 100 µg/mL (B. cereus UC 3145; Table II) was 15 mm. For the same molecule, the zone of inhibition at 1000 µg/mL (B. cereus UC 3145; Table I) was 24 mm, the zone of inhibition at 1000 µg/mL (B. cereus UC 3145; Table II) was 23 mm and the zone of inhibition at 100 µg/mL (S. schottmuelleri UC 126 [4]; Table I) was 16 mm. For the same molecule, the zone of inhibition at 100 µg/mL (S. schottmuelleri UC 126 [4]; Table II) was 15 mm, the zone of inhibition at 1000 µg/mL (S. schottmuelleri UC 126 [4]; Table I) was 24 mm and the zone of inhibition at 1000 µg/mL (S. schottmuelleri UC 126 [4]; Table II) was 23 mm. For the same molecule, the zone of inhibition at 100 µg/mL (B. subtilis UC 564; Table I) was 30 mm, the zone of inhibition at 100 µg/mL (B. subtilis UC 564; Table II) was 28 mm and the zone of inhibition at 1000 µg/mL (B. subtilis UC 564; Table I) was 39 mm. The zone of inhibition at 1000 µg/mL (B. subtilis UC 564; Table II) was 37 mm, the zone of inhibition at 1000 µg/mL (Ps. aeruginosa UC 95 [5]; Table I) was 17 mm and the zone of inhibition at 1000 µg/mL (Ps. aeruginosa UC 95 [5]; Table II) was 18 mm. The zone of inhibition at 100 µg/mL (K. pneumoniae UC 57; Table I) was 27 mm, the zone of inhibition at 100 µg/mL (K. pneumoniae UC 57; Table II) was 26 mm and the zone of inhibition at 1000 µg/mL (K. pneumoniae UC 57; Table I) was 34 mm. The zone of inhibition at 1000 µg/mL (K. pneumoniae UC 57; Table II) was 32 mm, the “Zones of Inhibition” value (S. lutea UC 130; 1 mg/ml, 12.5 mm paper discs, Table II) was 17 mm and the zone of inhibition at 1000 µg/mL (S. lutea UC 130; Micrococcus luteus, UC130, read-out: Zones of Inhibition) was 17 mm. It also gave a zone of inhibition at 100 µg/mL (P. vulgaris UC 93 [6]; Table I) of 18 mm, a zone of inhibition at 100 µg/mL (P. vulgaris UC 93 [6]; Table II) of 15 mm and a zone of inhibition at 1000 µg/mL (P. vulgaris UC 93 [6]; Table I) of 27 mm. It also gave a zone of inhibition at 1000 µg/mL (P. vulgaris UC 93 [6]; Table II) of 28 mm.
